Assay results as given in the supplement of paper PMC3974653.
Structures can show the parent of a compound that is named as a salt.

Test system: MTT (mouse pheochromocytoma)
Assay: IC50 of cell viability (ATP content)
Details: (24 or 48 h)
Procedure, shortened: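 MTT mouse pheochromocytoma cells were seeded into white 1536-well plates at 5 µl per well from a 200,000 cells/ml suspension in DMEM with 5% FBS and 1% horse serum, then cultured overnight at 37°C, 5% CO2. A pintool added 23 nl of library compound in DMSO at 8 concentrations (final 0.5 nM to 46 µM) for 24 or 48 hrs, and CellTiter-Glo ATP luminescence was read after 15 minutes. Signals were scaled so that positive-control wells equalled 100% and DMSO wells 0%. IC50 values were derived by fitting a four-parameter logistic curve.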

SMILES | IC50 of cell viability [µM]
COC1C(OC(=O)/C=C/C=C/C=C/C=C/C(=O)O)CCC2(CO2)C1C1(C)OC1CC=C(C)C (stereo unspecified) [FUMAGILLIN] | > 46
Cc1nc2c([nH]1)c(=O)n(C)c(=O)n2Cc1ccco1 [FURAFYLLINE] | > 46
O=C([O-])c1cc2cc(Cc3cccnc3)ccc2o1.[Na+] [FUREGRELATE SODIUM] | > 46
C/C(=C(/CCO)SSC[C@@H]1CCCO1)N(C=O)Cc1cnc(C)nc1N [FURSULTIAMINE HYDROCHLORIDE] | > 46
Cc1nc[nH]c1CC1CCc2c(C)c3ccccc3n2C1=O (stereo unspecified) [Fabesetron] | > 46
CC(C)\C1=C(/CN(C)[C@@H](C)CC2=CC=CC=C2)N(C)N(C3=CC=CC=C3)C1=O [Famprofazone] | > 46
c1ccc(CCNc2nc(-c3ccccc3)cs2)cc1 [Fanetizole] | > 46
C[C@@H](O)[C@@H]1C(=O)N2C(C(=O)O)=C([C@H]3CCCO3)SC12 (stereo partly specified) [Faropenem] | > 46
O=[S+]([O-])(c1cccc2cnccc12)N1CCCNCC1 [Fasudil hydrochloride] | > 46
Cc1nc(-c2ccc(OCC(C)C)c(C#N)c2)sc1C(=O)O [Febuxostat] | > 46
O=C(O)Cc1ccc(-c2ccccc2)cc1 [Felbinac] | > 46
CCOC(=O)\C1=C(/C)N\C(=C(/C1C2=CC=CC(=C2Cl)Cl)C(=O)OC)C (stereo unspecified) [Felodipine] | > 46
CN(C)c1ccc(/N=N/S(=O)(=O)[O-])cc1 [Fenaminosulf] | > 46
CCOP(=O)(NC(C)C)Oc1ccc(SC)c(C)c1 (stereo unspecified) [Fenamiphos] | > 46
Nc1nnnn1-c1ccccc1 [Fenamol] | > 46
Nc1ccc(/N=N/c2ccccc2)c(N)n1 [Fenazopiridina] | > 46
O=C(O)CCC(=O)c1ccc(-c2ccccc2)cc1 [Fenbufen] | > 46

SMILES | IC50 of cell viability [µM]
COP(=S)(OC)Oc1cc(Cl)c(Cl)cc1Cl [Fenchlorphos] | > 46
O=C(O)Cc1ccccc1Oc1ccc(Cl)cc1Cl [Fenclofenac] | > 46
O=C(O)Cc1csc(-c2ccc(Cl)cc2)n1 [Fenclozic acid] | > 46
CC(Cc1ccccc1)NCCn1cnc2c1c(=O)n(C)c(=O)n2C (stereo unspecified) [Fenethylline] | > 46
NC(=O)NNc1ccccc1 [Fenicarbazida] | > 46
CNC[C@H](O)c1cccc(O)c1 [Fenilefrina] | > 46
CN1CC(=O)\N=C1\NC(=O)NC2=CC(=CC=C2)Cl [Fenobam] | > 46
CC(C)OC(=O)C(C)(C)Oc1ccc(C(=O)c2ccc(Cl)cc2)cc1 [Fenofibrate] | > 46
O=[S+]1([O-])OC(c2ccc(O)cc2)(c2ccc(O)cc2)c2ccccc21 [Fenolipuna] | > 46
C[C@H](C(=O)[O-])c1cccc(Oc2ccccc2)c1.C[C@H](C(=O)[O-])c1cccc(Oc2ccccc2)c1.O.O.[Ca+2] [Fenoprofen calcium salt dihydrate] | > 46
C[C@@H](Cc1ccc(O)cc1)NC[C@@H](O)c1cc(O)cc(O)c1 [Fenoterol hydrobromide] | > 46
c1ccc2c(c1)Nc1ccccc1S2 [Fenotiazina] | > 46
COP(=S)(OC)Oc1ccc(SC)c(C)c1 [Fenthion (Baytex)] | > 46
CN1CCC(O)(c2ccc(F)cc2)C(C(=O)c2ccc(F)cc2)C1 (stereo unspecified) [Flazalone] | > 46
O=C(NC(=O)c1c(F)cccc1F)Nc1ccc(Cl)c(Oc2ncc(C(F)(F)F)cc2Cl)c1 [Fluazuron] | > 46
CC(=O)[C@@]1(O)CC[C@@H]2[C@@H]3CCC/4=C/C(=O)CC[C@]4(C)[C@]3(F)[C@@H](O)C[C@]12C [Flugestone] | > 46

The next lines start with the values.

IC50 of cell viability [µM] | SMILES
> 46 | CC(COc1ccccc1)N(CCCl)Cc1ccccc1 (stereo unspecified) [Fenoxibenzamina]
> 46 | O=C(O)Cc1sc(-c2ccccc2)nc1-c1ccc(Cl)cc1 [Fentiazac]
> 46 | O=C(O)CC1=S=C(c2ccccc2)N=C1c1ccc(Cl)cc1 [Fentiazac]
> 46 | Oc1ccc(Cl)cc1Sc1cc(Cl)ccc1O [Fenticlor]
> 46 | C\C(C)=C\CC1C(=O)N(N(C1=O)C2=CC=CC=C2)C3=CC=CC=C3 [Feprazone]
> 46 | O=C([O-])CN(CCN(CC(=O)[O-])CC(=O)[O-])CC(=O)[O-].[Fe+3].[Na+] [Feredato sodico]
> 46 | CC(C)(C(=O)O)c1ccc(C(O)CCCN2CCC(C(O)(c3ccccc3)c3ccccc3)CC2)cc1 (stereo unspecified) [Fexofenadine]
> 46 | COc1cccc2c1[C@@H]1CN(CCCCn3c(=O)[nH]c4c(sc5ncc(-c6ccccc6)nc54)c3=O)C[C@@H]1CO2 [Fiduxosin hydrochloride]
> 46 | CC(C)(C)NC(=O)[C@@H]1CC[C@@H]2[C@@H]3CC[C@@H]4NC(=O)\C=C/[C@@]4(C)[C@H]3CC[C@@]12C [Finasteride]
> 46 | COc1cc(O)cc(O)c1 [Flamenol]
> 46 | O=C1/C=C(OC2=CC=CC=C12)/C3=CC=CC=C3 [Flavone]
> 46 | C\C1=C(\OC2=C(C=CC=C2C(=O)OCCN3CCCCC3)C1=O)C4=CC=CC=C4 [Flavoxate hydrochloride]
> 46 | CN(C)CCC=C1C2=C(C=CC=C2)\C=C/C3=C1C=CC=C3 [Flexeril]
> 46 | CO[C@@]1(NC(=O)CSC(F)F)C(=O)N2C(C(=O)O)=C(CSc3nnnn3CCO)CO[C@@H]21 [Flomoxef]
> 46 | C[S+](=O)([O-])c1ccc([C@H](O)[C@H](CF)NC(=O)C(Cl)Cl)cc1 [Florfenicol]
> 46 | CN1/C=C(/[S+](C)[O-])C(=O)C2=C1C=C(F)C=C2 (stereo unspecified) [Flosequinan]
> 46 | CC1=C(C(=O)N[C@H]2[C@@H]3SC(C)(C)[C@H]([N@@]3C2=O)C(O)=O)C(=NO1)C4=C(Cl)C=CC=C4F [Floxacillin]
> 46 | OC[C@H]1O[C@H](C[C@@H]1O)N2\C=C(F)/C(=O)NC2=O [Floxuridine]
> 46 | NC/1=N/C(=O)N/C=C1F [Flucytosine]
> 46 | O=C1c2ccccc2C(=O)C1c1ccc(F)cc1 [Fluindiona]
> 46 | C[C@@H]1C[C@H]2[C@@H]3C[C@H](F)C/4=C/C(=O)/C=C\[C@]4(C)[C@@]3(F)[C@@H](O)C[C@]2(C)[C@@]1(O)C(=O)COC(=O)C(C)(C)C [Flumethasone pivalate]
> 46 | C[C@@H]1C[C@@H]2[C@@H]3C[C@@H](F)\C4=C\C(=O)\C=C/[C@]4(C)[C@@]3(F)[C@H](O)C[C@@]2(C)[C@@]1(O)C(=O)CO [Flumethasone]
> 46 | CC1(C)O[C@@H]2C[C@@H]3[C@@H]4C[C@@H](F)\C5=C\C(=O)\C=C/[C@]5(C)[C@H]4[C@H](O)C[C@@]3(C)[C@]2(O1)C(=O)CO [Flunisolide]
